Experiments:
[1] = system: DENV2; test: DENV2 infectivity assay, compound pre-incubated with virus inoculum, viral yield by plaque formation assay; conditions: treatment of the virus
[2] = biological target: Abl kinases; test: Abl kinase inhibition (IC50 kinase); assay type: biochemical
[3] = system: dengue virus serotype 2, DENV2; test: Reduction of DENV viral titer by kinase inhibitors and labelled GNF2 derivatives (cell-based); conditions: for EC90: Dengue virus, DENV2, read-out: EC90 (dengue virus serotype 2, DENV2)
Description: In order to investigate the role of kinases on DENV entry, the order of addition of the cells, virus, and inhibitor was investigated. An inhibitor was either (i) contacted with a virus for 1 h at 37° C.; (ii) contacted with cells for 1 h at 37° C.; or (iii) contacted with a virus and cells for 1 h at 37° C. The cells were washed to remove virus and inhibitor. The washed cells were exposed to either DMSO or an inhibitor. Viral titer was measured at intervals post-infection by harvesting supernatants and measuring virus production by a plaque formation assay (PFA).

[4] = system: DENV; test: Association of DENV with liposomes; assay type: biochemical
[5] = system: DENV2; test: Order-of-addition / post-infection treatment, single-cycle DENV2 yield in BHK21 cells by plaque-formation assay; assay type: cell-based; conditions: for inhibition of DENV2 replication when added after infection: post-treatment of cells
Description: To examine the point(s) in the DENV infectious cycle affected by GNF-2, we performed order of addition experiments measuring the effect of GNF-2 when incubated with cells or virus prior to infection (PRE), when added at the time of infection (CO), or when added after the initial infection had been allowed to occur (POST). […] BHK21 cells were inoculated with DENV2 at a multiplicity of infection (MOI) of 1 and incubated for one-hour at 37° C. after which the inoculum was removed, the cells were washed, and fresh medium was added to limit infection to a single round. At twenty-four hours post-infection, corresponding to approximately one complete life cycle of DENV, the yield of infectious virions that had been released to the culture supernatant was quantified by plaque-formation assay (PFA) as a measure of successful DENV replication.

SMILES | lowering of DV titer when pre-incubated with the virus, compared to DMSO control [1] [log] | IC50 [2] [nM] | reduction of DENV viral titer [3] | EC90 [3] [nM] | association of DENV with liposomes [4] | IC90 (concentration causing a 10-fold decrease in single-cycle viral yield) ([5]; added to cells post-infection, BHK21, MOI 1, 24 h) [μM] | inhibition of DENV2 replication when added after infection [5]
NC(=O)c1cccc(-c2cc(Nc3ccc(OC(F)(F)F)cc3)ncn2)c1 [GNF-2] | ~1 | 138 ± 5 | over 1 log unit | ~1000 | does not block association | 8 | inhibited DENV2 replication
Cc1ccc(NC(=O)c2ccc(CN3CCN(C)CC3)cc2)cc1Nc1nccc(-c2cccnc2)n1 [imatinib] |  |  | did not | 10000 |  |  | inhibited DENV2 replication
